Measurements published in ChEMBL document CHEMBL1133833, “Dopaminergic 7-aminotetrahydroindolizines: ex-chiral pool synthesis and preferential D3 receptor binding” (Bioorg Med Chem Lett, 2001).

Columns and labels:
D(2) dopamine receptor [1] = molecular target: T1, D(2) dopamine receptor (Bos taurus, UniProt P20288); experiment: In vitro ability to displace [3H]pramipexole from high affinity binding sites of bovine D2 receptors in striatal membranes.
D(1A) dopamine receptor = D(1A) dopamine receptor (Bos taurus, UniProt Q95136); experiment: In vitro ability to displace [3H]SCH-23390 from bovine Dopamine receptor D1 in striatal membranes.
D(2) dopamine receptor [2] = molecular target: T1, D(2) dopamine receptor; experiment: In vitro ability to displace [3H]-spiperone from bovine cloned Dopamine receptor D2 stably expressed in CHO cells.; assay type: cell-based
D(3) dopamine receptor = D(3) dopamine receptor (Homo sapiens, UniProt P35462)
Chain of D(3) dopamine receptor (P35462 whole entry): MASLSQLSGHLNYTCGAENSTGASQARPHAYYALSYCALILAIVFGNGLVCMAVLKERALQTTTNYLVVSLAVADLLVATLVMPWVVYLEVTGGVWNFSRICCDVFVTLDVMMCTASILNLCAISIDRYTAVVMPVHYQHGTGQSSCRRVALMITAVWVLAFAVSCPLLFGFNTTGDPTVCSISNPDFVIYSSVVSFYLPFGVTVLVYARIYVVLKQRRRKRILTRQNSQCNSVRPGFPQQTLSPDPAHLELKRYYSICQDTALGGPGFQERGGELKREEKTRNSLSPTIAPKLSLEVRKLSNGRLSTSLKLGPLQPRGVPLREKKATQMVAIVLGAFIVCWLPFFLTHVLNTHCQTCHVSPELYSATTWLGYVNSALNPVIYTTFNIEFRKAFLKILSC
Description: In vitro ability to displace [3H]spiperone from human cloned Dopamine receptor D3 stably expressed in CHO cells.

T1 sequence (P20288 whole entry): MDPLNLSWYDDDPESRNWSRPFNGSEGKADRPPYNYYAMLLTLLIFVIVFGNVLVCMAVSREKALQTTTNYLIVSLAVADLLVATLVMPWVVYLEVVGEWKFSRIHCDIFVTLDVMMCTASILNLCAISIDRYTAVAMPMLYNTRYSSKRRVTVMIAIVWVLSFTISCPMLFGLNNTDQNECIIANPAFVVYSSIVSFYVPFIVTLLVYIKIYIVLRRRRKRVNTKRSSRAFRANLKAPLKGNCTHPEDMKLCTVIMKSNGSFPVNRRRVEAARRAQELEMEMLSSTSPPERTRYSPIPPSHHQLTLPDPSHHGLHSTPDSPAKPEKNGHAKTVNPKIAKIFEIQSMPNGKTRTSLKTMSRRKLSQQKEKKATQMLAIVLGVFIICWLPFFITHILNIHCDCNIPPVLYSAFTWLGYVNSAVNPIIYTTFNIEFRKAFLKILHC
Chain of D(1A) dopamine receptor (Q95136 whole entry): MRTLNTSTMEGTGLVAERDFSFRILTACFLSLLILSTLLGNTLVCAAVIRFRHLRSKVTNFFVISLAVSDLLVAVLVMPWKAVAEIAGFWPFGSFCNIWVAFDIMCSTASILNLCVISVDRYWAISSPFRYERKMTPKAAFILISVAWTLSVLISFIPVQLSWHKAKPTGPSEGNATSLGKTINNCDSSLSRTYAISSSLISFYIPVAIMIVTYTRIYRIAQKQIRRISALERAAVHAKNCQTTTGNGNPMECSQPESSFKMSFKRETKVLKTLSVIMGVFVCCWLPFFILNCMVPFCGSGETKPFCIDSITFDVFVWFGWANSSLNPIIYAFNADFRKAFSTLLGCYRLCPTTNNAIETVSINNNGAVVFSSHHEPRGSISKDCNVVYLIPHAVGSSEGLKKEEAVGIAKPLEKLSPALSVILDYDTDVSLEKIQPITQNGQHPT

Structure (SMILES)	Ki (D(2) dopamine receptor [1])	Ki (D(1A) dopamine receptor)	Ki (D(2) dopamine receptor [2])	Ki (D(3) dopamine receptor)
CCCN(CCC)[C@@H]1CCn2cc(C)cc2C1	0.8 µM	83 µM	17 µM	1.3 µM
CCCN(CCC)[C@H]1CCn2ccc(CO)c2C1	8 µM	> 100 µM	55 µM	9.7 µM
CCCN(CCC)[C@H]1CCn2cc(CO)cc2C1	13 µM	> 100 µM	> 100 µM	8.6 µM
CCCN(CCC)[C@@H]1CCn2c(C=O)ccc2C1	1.7 µM	47 µM	21 µM	1.8 µM
CCCN(CCC)[C@@H]1CCn2ccc(C)c2C1	1 µM	71 µM	12 µM	2.1 µM
CCCN(CCC)[C@@H]1CCn2cc(CO)cc2C1	1 µM	> 100 µM	34 µM	1.4 µM
CCCN(CCC)[C@H]1CCn2ccc(C=O)c2C1	1.6 µM	> 100 µM	5.9 µM	3.6 µM
CCCN(CCC)[C@@H]1CCn2c(CO)ccc2C1	4.7 µM	> 100 µM	37 µM	7.4 µM

These reach a lower Ki (D(2) dopamine receptor [1]). Values come first.

Ki (D(2) dopamine receptor [1])	Ki (D(1A) dopamine receptor)	Ki (D(2) dopamine receptor [2])	Ki (D(3) dopamine receptor)	Structure (SMILES)
0.021 µM	26 µM	–	–	CCCN(CCC)[C@H]1CCn2c(C=O)ccc2C1
0.15 µM	> 100 µM	4.1 µM	0.56 µM	CCCN(CCC)[C@@H]1CCn2cccc2C1
0.43 µM	12 µM	1.3 µM	0.59 µM	CCCN(CCC)[C@@H]1CCn2c(C)ccc2C1
0.087 µM	13 µM	5.5 µM	0.42 µM	CCCN(CCC)[C@H]1CCn2c(CO)ccc2C1
0.2 µM	100 µM	6.1 µM	0.33 µM	CCCN(CCC)[C@@H]1CCn2ccc(CO)c2C1
0.15 µM	29 µM	3.8 µM	0.43 µM	CCCN(CCC)[C@H]1CCn2c(C)ccc2C1
0.38 µM	68 µM	4 µM	0.75 µM	CCCN(CCC)[C@H]1CCn2ccc(C)c2C1
0.38 µM	80 µM	12 µM	0.51 µM	CCCN(CCC)[C@@H]1CCn2ccc(C=O)c2C1
0.64 µM	44 µM	9.6 µM	0.77 µM	CCCN(CCC)[C@H]1CCn2cc(C)cc2C1
